Source: PMC8860565, “Molecular Insights into How the Dimetal Center in Dihydropyrimidinase Can Bind the Thymine Antagonist 5-Aminouracil: A Different Binding Mode from the Anticancer Drug 5-Fluorouracil” (Bioinorganic Chemistry and Applications, 2022)
Read-outs that look alike come from different tables or passages of the source.

Key:
[1] = tested on: biphasic interphase-mitotic (IM) cells; parameters: method as in PMID 32328702; details: cited from earlier work
[2] = molecular target: T1, Pseudomonas aeruginosa DHPase (PaDHPase) (Pseudomonas aeruginosa, UniProt Q9I676); details: read-out: Kd value of PaDHPase bound to 5-FU; wild-type PaDHPase ref 44; cited from earlier work
T1 construct: made in house; host or cells: Escherichia coli BL21 (DE3)

[3] = molecular target: T2, PaDHPase-S289A (Pseudomonas aeruginosa, UniProt Q9I676, S289A); test: Fluorescence quenching titration of PaDHPase-S289A mutant; type: binding
T2 construct: made in house; host or cells: Escherichia coli BL21 (DE3) (stated for the wild type; mutants purified by the same protocol)
Description: (§1) The PaDHPase mutants were generated according to the QuikChange Site-Directed Mutagenesis kit protocol (Stratagene; La Jolla, CA, USA). The wild-type plasmid pET21b-PaDHPase was used as a template. The presence of the mutation was verified by DNA sequencing in each construct. The recombinant mutant proteins were purified using the protocol for the wild-type PaDHPase by Ni^2+-affinity chromatography (Table 1).
(§2) Through the fluorescence quenching analysis, the Kd value of the purified PaDHPase was determined. An aliquot of 5-AU was added into the solution containing PaDHPase (0.8 μM) and 50 mM HEPES at pH 7.0. The decrease in the intrinsic fluorescence of PaDHPase was measured at 336 nm upon excitation at 279 nm and 25°C with a spectrofluorimeter (Hitachi F-2700; Hitachi High-Technologies, Japan). The Kd was obtained using the equation: ΔF = ΔFmax − Kd(ΔF/[5-AU]).
(§3) Figure 4 Fluorescence titration of PaDHPase with 5-AU. (a) The fluorescence emission spectra of PaDHPase with 5-AU of different concentrations (0–300 μM). The decrease in intrinsic fluorescence of protein was measured at 336 nm upon excitation at 279 nm with a spectrofluorimeter. […] (b) The fluorescence emission spectra of PaDHPase-Y155A with 5-AU of different concentrations (0–300 μM). (c) The fluorescence emission spectra of PaDHPase-S289A with 5-AU. (d) The fluorescence emission spectra of PaDHPase-N337A with 5-AU. (e) The fluorescence emission spectra of PaDHPase-C318A with 5-AU. (f) The fluorescence emission spectra of Znα-PaDHPase with 5-AU. (g) An aliquot amount of 5-AU was added to the enzyme solution for determining the Kd. The Kd was obtained by the equation: ΔF = ΔFmax − Kd(ΔF/[5-AU]). Data points are an average of 2–3 determinations within 10% error.
(§4) 5-AU interacts with the main chains of residues Ser289 and Asn337 and the side chain of residue Tyr155. To investigate the contribution of individual amino acid residues to 5-AU binding, alanine substitution mutants (Table 2) were constructed and analyzed by fluorescence quenching (Figures 4(b)–4(d)).

[4] = molecular target: T3, PaDHPase-C318A (Pseudomonas aeruginosa, UniProt Q9I676, C318A); test: Fluorescence quenching titration of PaDHPase-C318A mutant; type: binding
T3 construct: made in house; host or cells: Escherichia coli BL21 (DE3) (stated for the wild type; mutants purified by the same protocol)
Description: as §1, §2, §3
Structurally, Cys318 is involved in 5-FU [44] but not 5-AU. For comparison, the C318A mutant was also analyzed by fluorescence quenching (Figure 4(e)). […] The abilities of the wild-type PaDHPase and the C318A mutant to bind 5-AU are approximately equal. Thus, Cys318 is not essential for 5-AU binding.

[5] = molecular target: T4, PaDHPase-N337A (Pseudomonas aeruginosa, UniProt Q9I676, N337A); test: Fluorescence quenching titration of PaDHPase-N337A mutant; type: binding
T4 construct: made in house; host or cells: Escherichia coli BL21 (DE3) (stated for the wild type; mutants purified by the same protocol)
Description: as §1, §2, §3, §4

[6] = molecular target: T5, Znα-PaDHPase (mono-Zn PaDHPase) (Pseudomonas aeruginosa, UniProt Q9I676); test: Fluorescence quenching titration of mono-Zn PaDHPase; type: binding
T5 construct: made in house; host or cells: Escherichia coli BL21 (DE3)
Description: The mono-Zn PaDHPase was prepared using the protocol described previously. Purified PaDHPase was dialyzed against a chelating buffer (50 mM MES, 50 mM EDTA, and 15 mM 8-HQSA, pH 6.5; Buffer B) at room temperature for 3 days. The resultant enzyme solution was then dialyzed against Buffer A.
as §2, §3
To confirm the role of Znβ in 5-AU binding and to compare the binding contribution with other mutant proteins (Table 3), we produced mono-Zn PaDHPase (Znα-PaDHPase) for binding analysis. […] The binding of 5-AU to Znα-PaDHPase was also analyzed by the fluorescence quenching method (Figure 4(f)). Upon the addition of 300 μM 5-AU, the intrinsic fluorescence of Znα-PaDHPase was quenched by 49.3%. The Kd value of Znα-PaDHPase for 5-AU binding was calculated to be 281.5 ± 9.0 μM from the titration curve (Figure 4(g)). Based on the Kd values, the strength of complex formation with 5-AU followed the following order: the wild-type enzyme ≈ C318A > N337A > Y155A ≈ S289A > Znα-PaDHPase (Table 3).

[7] = molecular target: T1, Pseudomonas aeruginosa DHPase (PaDHPase); test: Fluorescence quenching titration of wild-type PaDHPase; type: binding
Description: as §2
Prior to this study, whether 5-AU could bind to DHPase remained unknown. To confirm if PaDHPase is capable of binding 5-AU, we used the fluorescence quenching method to determine the binding ability of PaDHPase (Figure 4). Quenching is a complex formation process that decreases the fluorescence intensity of protein. […] When 5-AU was titrated into the PaDHPase solution, the intrinsic fluorescence of the protein was progressively quenched. Upon the addition of 300 μM 5-AU, the intrinsic fluorescence of PaDHPase was quenched by 87.3%.
as §3

[8] = molecular target: T6, PaDHPase-Y155A (Pseudomonas aeruginosa, UniProt Q9I676, Y155A); test: Fluorescence quenching titration of PaDHPase-Y155A mutant; type: binding
T6 construct: made in house; host or cells: Escherichia coli BL21 (DE3) (stated for the wild type; mutants purified by the same protocol)
Description: as §1
as §2, with “The Kd was obtained using the equation: ΔF = ΔFmax − Kd(ΔF/[5-AU]).” left out
as §3, with “(f) The fluorescence emission spectra of Znα-PaDHPase with 5-AU. (g) An aliquot amount of 5-AU was added to the enzyme solution for determining the Kd. The Kd was obtained by the equation: ΔF = ΔFmax − Kd(ΔF/[5-AU]). Data points are an average of 2–3 determinations within 10% error.” left out

T5 sequence (Q9I676 whole entry): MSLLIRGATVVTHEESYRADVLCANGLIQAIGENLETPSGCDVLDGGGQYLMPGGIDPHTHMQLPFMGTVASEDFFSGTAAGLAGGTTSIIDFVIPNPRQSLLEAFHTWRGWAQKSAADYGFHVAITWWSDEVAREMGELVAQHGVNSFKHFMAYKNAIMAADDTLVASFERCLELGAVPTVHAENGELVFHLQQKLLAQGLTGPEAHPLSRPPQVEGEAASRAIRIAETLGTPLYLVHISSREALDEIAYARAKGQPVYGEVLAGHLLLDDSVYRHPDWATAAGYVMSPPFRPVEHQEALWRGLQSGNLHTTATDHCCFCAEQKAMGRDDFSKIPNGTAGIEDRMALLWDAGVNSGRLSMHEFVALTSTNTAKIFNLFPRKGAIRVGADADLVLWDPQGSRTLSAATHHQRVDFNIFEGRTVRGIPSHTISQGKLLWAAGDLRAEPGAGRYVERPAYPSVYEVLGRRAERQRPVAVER
T1 sequence (Q9I676 whole entry): as above
T3 sequence (Q9I676 whole entry C318A): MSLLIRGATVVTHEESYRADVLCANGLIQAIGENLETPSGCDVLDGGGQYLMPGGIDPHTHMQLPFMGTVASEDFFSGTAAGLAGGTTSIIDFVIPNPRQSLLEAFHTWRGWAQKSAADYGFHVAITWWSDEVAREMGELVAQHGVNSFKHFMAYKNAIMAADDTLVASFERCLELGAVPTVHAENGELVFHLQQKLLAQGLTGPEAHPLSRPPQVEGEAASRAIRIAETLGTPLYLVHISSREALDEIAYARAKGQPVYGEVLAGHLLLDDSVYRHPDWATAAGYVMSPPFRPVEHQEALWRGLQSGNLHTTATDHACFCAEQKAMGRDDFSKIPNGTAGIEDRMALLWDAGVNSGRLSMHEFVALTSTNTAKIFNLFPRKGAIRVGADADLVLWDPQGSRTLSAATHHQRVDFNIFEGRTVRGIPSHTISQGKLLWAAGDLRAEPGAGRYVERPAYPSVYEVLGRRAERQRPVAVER
T4 sequence (Q9I676 whole entry N337A): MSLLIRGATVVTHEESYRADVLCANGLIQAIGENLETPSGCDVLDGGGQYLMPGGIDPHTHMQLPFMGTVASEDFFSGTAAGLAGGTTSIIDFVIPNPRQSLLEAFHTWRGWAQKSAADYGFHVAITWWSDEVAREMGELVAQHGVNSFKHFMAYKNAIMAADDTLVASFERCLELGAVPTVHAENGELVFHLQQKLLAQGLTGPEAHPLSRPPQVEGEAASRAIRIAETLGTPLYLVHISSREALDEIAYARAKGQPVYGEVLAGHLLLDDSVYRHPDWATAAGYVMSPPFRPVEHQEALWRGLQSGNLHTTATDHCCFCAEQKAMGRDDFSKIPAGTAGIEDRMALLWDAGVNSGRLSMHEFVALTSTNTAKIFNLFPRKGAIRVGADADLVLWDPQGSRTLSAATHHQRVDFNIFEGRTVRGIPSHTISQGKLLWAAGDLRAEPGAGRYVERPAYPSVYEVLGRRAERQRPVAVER
T2 sequence (Q9I676 whole entry S289A): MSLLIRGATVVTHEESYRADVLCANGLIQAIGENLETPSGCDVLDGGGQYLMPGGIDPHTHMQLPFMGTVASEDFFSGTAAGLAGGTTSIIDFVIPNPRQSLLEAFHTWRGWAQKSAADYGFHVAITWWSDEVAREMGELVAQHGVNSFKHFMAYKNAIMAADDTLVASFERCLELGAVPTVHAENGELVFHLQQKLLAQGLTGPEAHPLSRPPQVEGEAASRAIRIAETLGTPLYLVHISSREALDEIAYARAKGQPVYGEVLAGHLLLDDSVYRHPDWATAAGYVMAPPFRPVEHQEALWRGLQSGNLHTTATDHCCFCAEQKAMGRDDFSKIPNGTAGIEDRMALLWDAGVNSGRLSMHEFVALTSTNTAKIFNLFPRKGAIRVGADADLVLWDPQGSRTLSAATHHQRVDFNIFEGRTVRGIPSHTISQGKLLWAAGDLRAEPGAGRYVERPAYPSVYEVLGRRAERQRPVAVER
T6 sequence (Q9I676 whole entry Y155A): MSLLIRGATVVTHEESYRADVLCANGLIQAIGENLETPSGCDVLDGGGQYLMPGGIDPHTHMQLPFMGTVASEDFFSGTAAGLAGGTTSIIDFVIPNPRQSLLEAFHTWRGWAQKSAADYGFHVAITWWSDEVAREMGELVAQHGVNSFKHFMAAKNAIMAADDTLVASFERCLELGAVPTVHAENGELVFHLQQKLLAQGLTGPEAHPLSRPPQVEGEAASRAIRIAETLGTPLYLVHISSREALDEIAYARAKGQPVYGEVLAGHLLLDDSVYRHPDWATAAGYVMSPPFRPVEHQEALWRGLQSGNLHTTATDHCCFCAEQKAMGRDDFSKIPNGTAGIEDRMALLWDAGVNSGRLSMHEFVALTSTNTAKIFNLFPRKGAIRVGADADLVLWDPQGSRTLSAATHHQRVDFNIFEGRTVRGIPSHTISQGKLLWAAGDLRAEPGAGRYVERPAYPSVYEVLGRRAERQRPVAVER

For O=c1[nH]cc(F)c(=O)[nH]1 [5-FU, 5-fluorouracil], the “induction of biphasic interphase-mitotic (IM) cells” value [1] is given as “no induction of IM cells was detected” and the Kd [2] is given as 133 ± 8.5 µM.
For Nc1c[nH]c(=O)[nH]c1=O [5-AU, 5-aminouracil], the “induction of biphasic interphase-mitotic (IM) cells” value [1] is given as “significantly induce biphasic interphase-mitotic (IM) cells”, the Kd [3] is given as 256 ± 3.2 µM and the λ em shift ([3]; PaDHPase-S289A) is given as 2.0 nm. The λ max ([3]; PaDHPase-S289A, emission maximum before and after adding 5-AU) was “From 337 to 339”, the Kd [4] was 103 ± 3.1 µM and the λ em shift ([4]; PaDHPase-C318A) was 6.0 nm. The λ max ([4]; PaDHPase-C318A, emission maximum before and after adding 5-AU) was “From 336 to 342”, the Kd [5] was 192 ± 8 µM and the λ em shift ([5]; PaDHPase-N337A) was 3.5 nm. The λ max ([5]; PaDHPase-N337A, emission maximum before and after adding 5-AU) was “From 336 to 339.5”, the Kd [6] was 281 ± 9 µM and the λ em shift ([6]; Znα-PaDHPase) was 1.5 nm. For the same molecule, the “Quenching (%) of intrinsic fluorescence” value ([6]; Znα-PaDHPase (mono-Zn), 300 μM 5-AU) was 49.3%, the λ max ([6]; Znα-PaDHPase, emission maximum before and after adding 5-AU) was “From 335 to 336.5” and the Kd [7] was 97.7 ± 2 µM. For the same molecule, the “Quenching (%) of intrinsic fluorescence” value ([7]; wild-type PaDHPase, 300 μM 5-AU, emission 336 nm, excitation 279 nm) was 87.3%, the λ max ([7]; wild-type PaDHPase, emission maximum before and after adding 5-AU) was “From 336.5 to 343” and the λ em shift ([7]; wild-type PaDHPase, red shift on adding 5-AU) was ~6.5 nm. For the same molecule, the Kd [8] was 247 ± 4 µM and the λ max ([8]; PaDHPase-Y155A, emission maximum before and after adding 5-AU) was “From 336.5 to 342”.
